Experimental data reported in ChEMBL document CHEMBL1201862, “PubChem BioAssay data set” (2004).
The source made the active and inactive calls.

Key:
[1] = HepG2 cell cytotoxicity, dose response, cytotoxicity control for non-replicating M. tuberculosis project (AID 489018); format: functional; conditions: Mycobacterium tuberculosis
[2] = Vero E6 cell cytotoxicity, dose response, cytotoxicity control for non-replicating M. tuberculosis project, secondary assay (AID 492998); format: functional, VeroE6; conditions: Vero C1008
[3] = cells; format: functional
[4] = THP-1 cell cytotoxicity, dose response, cytotoxicity control for non-replicating M. tuberculosis project (AID 489025); format: functional
[5] = target: T1, CAAX prenyl protease 2 (Saccharomyces cerevisiae S288c, UniProt Q03530); format: biochemical
T1 sequence (Q03530 whole entry): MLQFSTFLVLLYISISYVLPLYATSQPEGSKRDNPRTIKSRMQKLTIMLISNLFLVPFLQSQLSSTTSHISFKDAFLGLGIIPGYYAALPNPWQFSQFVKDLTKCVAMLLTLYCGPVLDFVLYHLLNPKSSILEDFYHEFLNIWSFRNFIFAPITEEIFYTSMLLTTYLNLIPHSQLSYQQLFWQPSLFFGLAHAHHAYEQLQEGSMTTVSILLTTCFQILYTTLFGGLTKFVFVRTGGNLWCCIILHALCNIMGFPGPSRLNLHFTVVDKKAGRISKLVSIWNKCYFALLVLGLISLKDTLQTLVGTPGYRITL

[6] = target: Trypsin (Sus scrofa, UniProt P00761); test: trypsin protease activity blockade – biochemical, quenched peptide fluorescence, cherry-pick, selectivity assay for Rce1 protease inhibitor project, dose response (AID 488789)
Trypsin, sequence (P00761 whole entry): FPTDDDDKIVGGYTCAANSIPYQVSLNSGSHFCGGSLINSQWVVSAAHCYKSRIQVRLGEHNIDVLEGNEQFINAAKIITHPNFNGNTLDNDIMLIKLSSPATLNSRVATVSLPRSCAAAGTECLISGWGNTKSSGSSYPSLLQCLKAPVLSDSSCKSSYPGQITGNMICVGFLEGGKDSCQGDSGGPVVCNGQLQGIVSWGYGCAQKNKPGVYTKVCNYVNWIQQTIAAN

[7] = target: T2, CAAX prenyl protease 2 (Homo sapiens, UniProt Q9Y256); test: inhibition of Ras-converting CAAX protease Rce1 – biochemical, yeast membranes, quenched-peptide fluorescence, cherry-pick, dose response (AID 588849)
T2 sequence (Q9Y256 whole entry): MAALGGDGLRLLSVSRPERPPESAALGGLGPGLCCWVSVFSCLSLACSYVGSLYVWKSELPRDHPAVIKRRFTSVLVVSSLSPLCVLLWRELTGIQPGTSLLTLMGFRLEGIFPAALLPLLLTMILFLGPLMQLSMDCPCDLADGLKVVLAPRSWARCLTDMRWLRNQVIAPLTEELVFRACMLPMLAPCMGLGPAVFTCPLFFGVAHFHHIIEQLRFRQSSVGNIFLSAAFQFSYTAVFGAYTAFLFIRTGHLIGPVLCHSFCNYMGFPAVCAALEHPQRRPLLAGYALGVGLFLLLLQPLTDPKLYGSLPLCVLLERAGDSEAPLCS

[8] = target: T3, Microphthalmia-associated transcription factor (Homo sapiens, UniProt O75030); test: reducers of TRPM1 reporter luminescence, concentration series – cell-based, SK-MEL-5, cherry-picked, set 3, MITF inhibitor project, dose response (AID 493073); format: functional;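 further: SK-MEL-5 melanoma cells with luciferase driven by the MITF target TRPM1 promoter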
T3 sequence (O75030 whole entry): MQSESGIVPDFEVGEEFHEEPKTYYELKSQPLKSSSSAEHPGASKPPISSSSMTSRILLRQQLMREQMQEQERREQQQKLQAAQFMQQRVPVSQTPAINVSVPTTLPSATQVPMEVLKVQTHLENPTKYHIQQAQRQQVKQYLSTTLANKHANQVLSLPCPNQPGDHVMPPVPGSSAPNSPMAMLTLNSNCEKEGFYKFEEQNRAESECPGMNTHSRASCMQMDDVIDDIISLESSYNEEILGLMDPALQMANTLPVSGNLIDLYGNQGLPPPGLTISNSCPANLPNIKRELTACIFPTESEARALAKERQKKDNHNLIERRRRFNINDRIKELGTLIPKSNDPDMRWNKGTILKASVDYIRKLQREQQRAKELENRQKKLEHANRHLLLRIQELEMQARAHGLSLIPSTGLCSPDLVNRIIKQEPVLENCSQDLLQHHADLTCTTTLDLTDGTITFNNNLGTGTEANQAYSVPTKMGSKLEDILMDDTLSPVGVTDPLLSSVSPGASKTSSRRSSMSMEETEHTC

[9] = tested on: Vero; test: cells; format: functional; conditions: Chlorocebus sabaeus
[10] = target: Peroxisome proliferator-activated receptor gamma/Nuclear receptor coactivator 3 (Homo sapiens, UniProt P37231); test: TR-FRET dose response biochemical High Throughput Screening assay for agonists of the steroid receptor coactivator 3 (SRC-3) recruitment by the peroxisome proliferator-activated receptor gamma (PPAR gamma): non-selective agonists. [Related pubchem assays: 1301 (Confirmation screen.), 1048 (Primary screen.)]; format: functional
Peroxisome proliferator-activated receptor gamma/Nuclear receptor coactivator 3, sequence (P37231 whole entry): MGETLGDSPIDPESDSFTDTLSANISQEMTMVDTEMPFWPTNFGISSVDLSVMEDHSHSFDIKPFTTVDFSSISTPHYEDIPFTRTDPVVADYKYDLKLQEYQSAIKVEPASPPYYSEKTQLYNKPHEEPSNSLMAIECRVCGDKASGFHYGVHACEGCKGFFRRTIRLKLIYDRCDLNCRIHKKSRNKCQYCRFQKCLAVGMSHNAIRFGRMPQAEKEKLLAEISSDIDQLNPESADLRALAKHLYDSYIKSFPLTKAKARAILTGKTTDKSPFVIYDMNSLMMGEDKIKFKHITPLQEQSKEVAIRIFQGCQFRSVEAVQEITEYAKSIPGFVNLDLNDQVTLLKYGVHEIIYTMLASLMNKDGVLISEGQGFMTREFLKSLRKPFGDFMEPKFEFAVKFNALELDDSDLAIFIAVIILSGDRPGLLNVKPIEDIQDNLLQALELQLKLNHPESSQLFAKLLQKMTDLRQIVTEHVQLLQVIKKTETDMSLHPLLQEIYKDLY
Peroxisome proliferator-activated receptor gamma/Nuclear receptor coactivator 3, sequence (Q9Y6Q9 whole entry, further chain): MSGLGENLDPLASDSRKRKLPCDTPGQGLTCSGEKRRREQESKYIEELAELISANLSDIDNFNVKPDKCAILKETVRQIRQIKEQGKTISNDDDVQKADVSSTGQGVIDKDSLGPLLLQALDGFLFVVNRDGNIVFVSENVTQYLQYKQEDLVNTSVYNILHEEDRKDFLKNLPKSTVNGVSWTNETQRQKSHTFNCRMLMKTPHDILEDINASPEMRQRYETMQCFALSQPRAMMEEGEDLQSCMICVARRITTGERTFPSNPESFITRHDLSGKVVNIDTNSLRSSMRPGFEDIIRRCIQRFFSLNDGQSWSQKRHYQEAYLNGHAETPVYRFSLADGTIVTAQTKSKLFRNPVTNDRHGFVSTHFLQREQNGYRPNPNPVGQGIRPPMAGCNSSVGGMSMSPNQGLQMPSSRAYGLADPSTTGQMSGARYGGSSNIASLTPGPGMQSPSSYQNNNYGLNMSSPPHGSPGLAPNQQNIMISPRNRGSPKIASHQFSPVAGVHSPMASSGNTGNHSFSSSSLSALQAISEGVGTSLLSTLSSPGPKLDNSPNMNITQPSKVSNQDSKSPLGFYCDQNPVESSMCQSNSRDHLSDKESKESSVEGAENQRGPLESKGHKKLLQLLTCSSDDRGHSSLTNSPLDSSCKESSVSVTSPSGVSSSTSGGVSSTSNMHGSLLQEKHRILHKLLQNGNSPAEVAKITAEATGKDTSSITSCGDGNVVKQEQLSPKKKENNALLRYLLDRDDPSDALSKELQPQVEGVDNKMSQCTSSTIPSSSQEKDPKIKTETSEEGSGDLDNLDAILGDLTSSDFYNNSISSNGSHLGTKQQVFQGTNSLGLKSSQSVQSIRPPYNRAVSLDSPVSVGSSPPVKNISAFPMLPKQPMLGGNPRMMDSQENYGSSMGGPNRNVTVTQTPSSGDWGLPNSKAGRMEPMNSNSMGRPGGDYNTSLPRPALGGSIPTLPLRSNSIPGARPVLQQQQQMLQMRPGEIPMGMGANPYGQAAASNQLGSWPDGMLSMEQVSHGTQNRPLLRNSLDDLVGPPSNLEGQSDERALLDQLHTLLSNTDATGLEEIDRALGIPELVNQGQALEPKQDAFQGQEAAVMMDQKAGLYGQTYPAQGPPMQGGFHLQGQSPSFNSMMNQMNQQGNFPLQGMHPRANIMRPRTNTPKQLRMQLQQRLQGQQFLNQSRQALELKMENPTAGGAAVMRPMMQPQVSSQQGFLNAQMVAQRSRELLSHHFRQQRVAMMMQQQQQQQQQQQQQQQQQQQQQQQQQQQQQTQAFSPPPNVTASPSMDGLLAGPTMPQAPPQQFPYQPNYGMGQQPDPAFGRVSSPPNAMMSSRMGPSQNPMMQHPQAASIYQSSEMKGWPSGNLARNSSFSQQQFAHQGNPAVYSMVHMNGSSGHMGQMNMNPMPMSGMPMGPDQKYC

[11] = viability of uninfected HEp-2 cells – cell-based, HTS, cytotoxicity control for RSV inhibitor project, dose response (AID 2410); format: functional; conditions: human respiratory syncytial virus
[12] = target: Peroxisome proliferator-activated receptor gamma/Nuclear receptor coactivator 2 (Homo sapiens, UniProt P37231); test: TR-FRET dose response biochemical High Throughput Screening assay for agonists of the steroid receptor coactivator 2 (SRC-2) recruitment by the peroxisome proliferator-activated receptor gamma (PPAR gamma): non-selective agonists. [Related pubchem assays: 1297, 1032 ]; format: functional
[13] = target: Peroxisome proliferator-activated receptor gamma/Nuclear receptor coactivator 1 (Homo sapiens, UniProt P37231); test: TR-FRET dose response biochemical High Throughput Screening assay for agonists of the steroid receptor coactivator 1 (SRC-1) recruitment by the peroxisome proliferator-activated receptor gamma (PPAR gamma): non-selective agonists. [Related pubchem assays (depositor defined):AID1300, AID1808, AID504735, AID631]; format: protein assay
[14] = target: T4, Protein skinhead-1 (Caenorhabditis elegans, UniProt P34707); format: functional
T4 sequence (P34707 whole entry): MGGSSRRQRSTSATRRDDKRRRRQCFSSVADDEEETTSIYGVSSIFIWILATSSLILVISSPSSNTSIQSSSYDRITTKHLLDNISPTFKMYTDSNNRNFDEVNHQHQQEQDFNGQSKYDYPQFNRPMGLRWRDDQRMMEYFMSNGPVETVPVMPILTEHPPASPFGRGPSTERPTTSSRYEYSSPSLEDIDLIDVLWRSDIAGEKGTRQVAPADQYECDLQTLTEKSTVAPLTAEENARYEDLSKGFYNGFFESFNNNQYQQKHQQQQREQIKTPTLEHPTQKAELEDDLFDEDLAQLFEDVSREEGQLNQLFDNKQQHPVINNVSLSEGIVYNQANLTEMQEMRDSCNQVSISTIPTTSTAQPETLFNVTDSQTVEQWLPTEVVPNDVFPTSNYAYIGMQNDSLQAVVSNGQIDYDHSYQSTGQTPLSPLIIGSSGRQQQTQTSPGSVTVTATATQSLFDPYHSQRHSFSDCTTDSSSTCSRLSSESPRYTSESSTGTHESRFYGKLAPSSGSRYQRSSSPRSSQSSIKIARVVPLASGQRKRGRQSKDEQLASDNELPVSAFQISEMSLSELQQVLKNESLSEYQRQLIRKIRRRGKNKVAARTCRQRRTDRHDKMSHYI

[15] = target: T5, Nucleotide-binding oligomerization domain-containing protein 2 (Homo sapiens, UniProt Q9HC29); test: inhibition of NOD2-driven NF-kB reporter – cell-based, luminescence, uHTS, HEK293 (AID 1566); format: functional
T5 sequence (Q9HC29 whole entry, the tested form may be a part): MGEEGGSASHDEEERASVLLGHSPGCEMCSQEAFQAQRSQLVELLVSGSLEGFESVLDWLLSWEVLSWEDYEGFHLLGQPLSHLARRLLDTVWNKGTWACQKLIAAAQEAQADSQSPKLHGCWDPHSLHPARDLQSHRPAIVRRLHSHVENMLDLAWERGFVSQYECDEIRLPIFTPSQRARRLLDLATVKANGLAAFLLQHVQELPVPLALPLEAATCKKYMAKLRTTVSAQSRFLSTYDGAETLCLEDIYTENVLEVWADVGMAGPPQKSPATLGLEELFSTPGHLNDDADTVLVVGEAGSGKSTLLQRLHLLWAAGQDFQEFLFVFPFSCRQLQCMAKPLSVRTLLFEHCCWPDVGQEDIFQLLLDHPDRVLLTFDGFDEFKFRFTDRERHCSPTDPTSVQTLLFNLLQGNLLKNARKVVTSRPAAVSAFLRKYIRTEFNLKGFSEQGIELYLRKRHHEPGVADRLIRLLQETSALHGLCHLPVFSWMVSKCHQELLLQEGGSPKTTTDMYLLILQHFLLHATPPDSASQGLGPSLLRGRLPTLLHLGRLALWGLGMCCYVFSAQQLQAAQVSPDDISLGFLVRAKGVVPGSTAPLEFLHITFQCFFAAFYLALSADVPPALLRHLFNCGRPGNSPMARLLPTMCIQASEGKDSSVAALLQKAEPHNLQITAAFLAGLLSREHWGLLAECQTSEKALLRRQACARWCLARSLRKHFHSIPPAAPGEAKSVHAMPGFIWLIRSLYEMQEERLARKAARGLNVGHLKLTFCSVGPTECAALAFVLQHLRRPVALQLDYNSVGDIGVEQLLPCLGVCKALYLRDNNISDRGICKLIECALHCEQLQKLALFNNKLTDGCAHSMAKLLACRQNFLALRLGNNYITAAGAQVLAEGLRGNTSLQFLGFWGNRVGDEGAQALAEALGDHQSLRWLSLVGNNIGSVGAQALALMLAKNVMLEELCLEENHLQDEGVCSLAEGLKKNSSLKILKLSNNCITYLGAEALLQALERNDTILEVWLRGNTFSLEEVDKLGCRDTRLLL

[16] = target: T5, Nucleotide-binding oligomerization domain-containing protein 2; test: PubChem AID 2334; format: functional
[17] = target: Tumor necrosis factor (Homo sapiens, UniProt P01375); test: analog potency on TNFa NF-kB signaling – cell-based, revised, SAR follow-up (AID 2337); format: functional
Tumor necrosis factor, sequence (P01375 whole entry): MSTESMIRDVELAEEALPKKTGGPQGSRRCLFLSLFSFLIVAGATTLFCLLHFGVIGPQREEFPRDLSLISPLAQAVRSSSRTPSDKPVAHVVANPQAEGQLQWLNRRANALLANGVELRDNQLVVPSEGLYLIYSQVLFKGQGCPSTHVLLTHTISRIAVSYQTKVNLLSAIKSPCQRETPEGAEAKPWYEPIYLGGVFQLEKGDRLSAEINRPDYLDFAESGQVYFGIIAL

[18] = tested on: HEK293; test: cells; conditions: Homo sapiens
[19] = target: T6, Nucleotide-binding oligomerization domain-containing protein 1 (Homo sapiens, UniProt Q9Y239); test: blockers of NOD1 pathway activity – revised, SAR follow-up (AID 2333); format: functional
T6 sequence (Q9Y239 whole entry): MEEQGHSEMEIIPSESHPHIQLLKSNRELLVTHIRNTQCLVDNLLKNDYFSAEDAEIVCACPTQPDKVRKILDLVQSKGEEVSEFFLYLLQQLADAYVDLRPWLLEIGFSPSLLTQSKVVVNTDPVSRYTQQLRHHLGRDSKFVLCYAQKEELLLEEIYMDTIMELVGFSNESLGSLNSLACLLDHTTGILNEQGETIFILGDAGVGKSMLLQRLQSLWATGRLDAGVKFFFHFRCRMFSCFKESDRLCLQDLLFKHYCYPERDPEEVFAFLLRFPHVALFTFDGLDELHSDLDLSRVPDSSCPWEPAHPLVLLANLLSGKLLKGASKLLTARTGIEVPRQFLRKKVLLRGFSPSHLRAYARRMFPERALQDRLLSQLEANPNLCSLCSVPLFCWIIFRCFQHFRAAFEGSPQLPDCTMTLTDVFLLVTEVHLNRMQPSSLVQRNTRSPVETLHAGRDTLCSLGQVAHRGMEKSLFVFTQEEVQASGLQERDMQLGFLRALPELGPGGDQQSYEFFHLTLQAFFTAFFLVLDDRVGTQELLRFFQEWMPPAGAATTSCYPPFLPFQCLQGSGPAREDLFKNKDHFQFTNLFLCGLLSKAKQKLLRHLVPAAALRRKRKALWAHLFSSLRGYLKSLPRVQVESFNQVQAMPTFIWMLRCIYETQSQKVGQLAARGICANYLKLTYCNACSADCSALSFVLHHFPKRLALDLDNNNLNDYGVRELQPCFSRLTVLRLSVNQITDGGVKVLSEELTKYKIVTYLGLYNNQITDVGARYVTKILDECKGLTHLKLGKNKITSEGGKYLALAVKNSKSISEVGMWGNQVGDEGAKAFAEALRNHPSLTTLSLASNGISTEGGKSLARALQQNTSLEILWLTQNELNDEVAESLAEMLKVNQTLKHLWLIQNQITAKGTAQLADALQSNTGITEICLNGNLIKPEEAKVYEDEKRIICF

[20] = non-specific 3'UTR reporter inhibition in Clone20-Shn3RL – cell-based, Renilla luciferase, cherry-picked, counter-screen for Shn3 inhibitor project, dose response (AID 624133); format: functional
[21] = tested on: HEK293; test: NOD2 signaling inhibitors in MDP-stimulated cells, cell-based, uHTS, luminescence (AID 2001); format: functional; conditions: Homo sapiens
[22] = tested on: HEK293; test: inhibition of NOD1-driven NF-kB reporter – cell-based, luminescence, uHTS, primary screen (AID 1578); format: functional; conditions: Homo sapiens
[23] = tested on: INS1; test: INS-1E survival protection against cytokine death – cell-based, luminescence, retest, dose response (AID 449756); format: functional; conditions: Rattus norvegicus;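 further: cell death triggered by IL-1 beta plus TNF-alpha plus IFN-gamma mixture; protective hits raise ATP signal compared with cytokine alone wells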
[24] = tested on: HEK293; test: cells; format: functional, cell-based; conditions: Homo sapiens
[25] = tested on: HEK293; test: cells; format: functional, cell-based; conditions: Homo sapiens; remark: listed apart in the source
[26] = tested on: HEK293; test: cells; format: functional, cell-based; conditions: Homo sapiens; remark: listed apart in the source
[27] = reduction of Shn3 3'UTR-driven luciferase in osteoblasts – cell-based, Clone20 osteoblasts, firefly luciferase, cherry-picked, dose response (AID 624132); format: functional;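 further: firefly luciferase luminescence from reporter carrying the Shn3 3'UTR in osteoblasts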
[28] = target: Nonstructural protein 1 (Influenza A virus, UniProt Q194T2); format: functional, Influenza A virus (A/California/07/2009(H1N1))
Nonstructural protein 1, sequence (Q194T2 whole entry): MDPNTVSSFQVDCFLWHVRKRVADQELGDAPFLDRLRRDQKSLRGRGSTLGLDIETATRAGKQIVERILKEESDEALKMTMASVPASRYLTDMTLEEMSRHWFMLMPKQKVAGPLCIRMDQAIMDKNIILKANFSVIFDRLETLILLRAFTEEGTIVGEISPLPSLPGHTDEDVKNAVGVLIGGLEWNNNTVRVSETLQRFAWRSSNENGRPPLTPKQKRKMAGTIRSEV

[29] = target: Intestinal-type alkaline phosphatase (Homo sapiens, UniProt P09923); test: human intestinal alkaline phosphatase activators, dose response, biochemical, luminescence, uHTS hits (AID 463120); format: functional
Intestinal-type alkaline phosphatase, sequence (P09923 whole entry): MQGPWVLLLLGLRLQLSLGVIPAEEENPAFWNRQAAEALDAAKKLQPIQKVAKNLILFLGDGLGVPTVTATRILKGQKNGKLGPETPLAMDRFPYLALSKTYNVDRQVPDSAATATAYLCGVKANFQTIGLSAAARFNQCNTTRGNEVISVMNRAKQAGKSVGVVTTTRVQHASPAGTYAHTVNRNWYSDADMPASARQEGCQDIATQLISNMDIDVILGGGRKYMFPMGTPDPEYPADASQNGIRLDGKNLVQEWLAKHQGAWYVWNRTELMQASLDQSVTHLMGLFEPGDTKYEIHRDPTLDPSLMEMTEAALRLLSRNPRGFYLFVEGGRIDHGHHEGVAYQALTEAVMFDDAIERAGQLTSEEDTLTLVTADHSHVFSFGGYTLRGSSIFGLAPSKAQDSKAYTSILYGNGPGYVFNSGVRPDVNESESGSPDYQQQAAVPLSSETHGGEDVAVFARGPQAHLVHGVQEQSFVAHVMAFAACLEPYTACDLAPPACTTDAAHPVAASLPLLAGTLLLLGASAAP

[30] = tested on: HeLa; test: ATP-based viability loss in HeLa cells – cell-based, CellTiter-Glo luminescence, cherry-pick samples, cytotoxicity control for MITF activator project, dose response (AID 540259); format: functional; conditions: Homo sapiens
[31] = microbe, parasite or virus in culture; format: functional; conditions: Mycobacterium tuberculosis

CCOc1ccc2nc(NC(=O)c3cnc(C)cn3)sc2c1
CC50 [1]: > 20 µM (active) | CC50 [2]: 12.7 µM (active) | IC50 [3]: 6.53 µM (active) | CC50 [4]: > 40 µM (active)

CCCOc1ccc(-c2nc3c(c(=O)[nH]c(=O)n3Cc3ccccc3)n2CCO)cc1OCC
AC50 [5]: 14.5 µM (active)

CC(C)C(=O)Nc1c2c(nc3ccccc13)N(C)CC2
AC50 [6]: 12.8 µM (active) | AC50 [5]: 36.2 µM (active) | AC50 [7]: 24 µM (active)

CCn1nnnc1SCC(=O)Nc1nc(C)c(C)s1
AC50 [7]: 9.77 µM (active)

O=C(Nc1ccccc1N1CCN(C(=O)c2ccccc2)CC1)c1ccc([N+](=O)[O-])o1
AC50 [8]: 11.4 µM (active) | CC50 [9]: 21.6 µM (active)

CCc1ccc(-n2c(SCc3cc(=O)n4cc(Br)ccc4n3)nc3nncc-3c2O)cc1
EC50 [10]: > 79.4 µM (not active) | CC50 [11]: 17 µM (active) | EC50 [12]: 14.4 µM (not active) | EC50 [13]: > 79.4 µM (inactive)

O=C(Nc1ccc([N+](=O)[O-])cc1)c1ccccc1
AC50 [8]: 40.2 µM (active) | IC50 [14]: > 100 µM (inactive)

Cc1nn(Cc2ccccc2Cl)c(C)c1C(=O)NCCN1C(=O)S/C(=C\c2ccccc2)C1=O
EC50 [10]: > 79.4 µM (not active) | EC50 [12]: > 79.4 µM (not active) | EC50 [13]: > 79.4 µM (inactive)

CCOC(=O)c1c(C)[nH]c(C)c1C(=O)CSc1nc2ccccc2c(=O)n1-c1ccc(CC)cc1
EC50 [15]: 5.86 µM (active) | IC50 [16]: 12 µM (active) | IC50 [17]: 11.1 µM (active) | IC50 [18]: > 20 µM (inactive) | IC50 [19]: 15.2 µM (active) | AC50 [20]: 6.48 µM (active) | IC50 [21]: 7.12 µM (active) | EC50 [22]: 6.9 µM (active) | AC50 [23]: 5.33 µM (active) | IC50 [24]: > 20 µM (inactive) | IC50 [25]: > 20 µM (inactive) | IC50 [26]: 13.4 µM (active) | AC50 [27]: 5.36 µM (active)

CCC(=O)N1CCc2cc(S(=O)(=O)N3CCN(c4ccc(Cl)cc4)CC3)ccc21
IC50 [16]: > 20 µM (inactive) | IC50 [17]: > 20 µM (inactive) | IC50 [18]: > 20 µM (inactive) | IC50 [19]: > 20 µM (inactive)

CC(=O)N1CCc2cc(S(=O)(=O)N3CCN(c4ccc(C#N)cc4)CC3)ccc21
IC50 [16]: 9.24 µM (active) | IC50 [17]: 8.79 µM (active) | IC50 [18]: > 20 µM (inactive) | IC50 [19]: 5.87 µM (active)

O=C(NCCCN1CCOCC1)C(=O)N/N=C/c1ccccc1O
IC50 [28]: 11.2 µM (active) | EC50 [29]: 19.2 µM (active)

CC(C)c1ccc2nc(N)sc2c1
AC50 [30]: 54.4 µM (active) | CC50 [31]: > 40 µM (active)
